# From US20120213826A1, “Use of Pro-Inflammatory Compounds for Promoting Bone Formation” (Imperial Innovations Limited, priority 2009, published 2012)
# “Also recorded” adds a separate entry of the source. Where two headings read alike, the source gives them in different places.
# Tests used:
# [1] = tested on: muscle-derived stromal cells (MDSC); assay: MDSC proliferation (CellTiter-Glo luminescent cell viability assay); assay type: cell-based, human
# Protocol: CellTiter-Glo® luminescent cell viability assay for MDSC in culture with A: TNF-α, B: IL-6 and C: IL-1β. 2.5×10^3 cells were cultured in triplicate for 1, 3 and 5 days in human serum-containing media ± recombinant human cytokine at the concentration indicated. The number of viaBIe cells in culture was determined using the assay, where luminescent signal is directly proportional to the concentration of ATP from viaBIe cells.
# In order to test this hypothesis, proliferation of MDSC in human serum-containing media with rhTNF-α, rhIL-6 and rhIL-1β was tested using the CellTiter-Glo® luminescent cell viability assay was used (Promega Corp., Madison, Wis.).
# This method assays the number of viaBIe cells in culture, by measuring adenosine triphosphate (ATP), where the luminescent signal is directly proportional to the number of ATP present.
# [2] = tested on: muscle-derived stromal cells (MDSC); assay: ALP quantification assay, osteogenic differentiation of cultured MDSC; assay type: cell-based, human
# Text: The immunoglobulin isotype controls used included IgG^1 for AbBMP-2/4 and AbTGF-β, and IgG^2B for Ab-BMP-7. B: human serum containing culture medium with the addition of recombinant human BMPs and TGF-β. C: fracture supernatant±antibody neutralization of TNF-α, IL-6 and IL-1β. The IgG^1 immunoglobulin was used as the antibody isotype control. D: human serum-containing culture medium with the addition of recombinant human TNF-α, IL-6 and IL-1β. E: Alizarin red staining for bone nodule formation after culture of 1×10^4 MDSC in human serum-containing media. […] A representative image from a single well is shown. All experiments were performed 3 times, in triplicate (n=3) using MDSC from 3 donors. Values for A-D represent a mean from 3 experiments ±SEM, using supernatant from 3 donors in A and C. *: P<0.05; **: P<0.01; ***: P<0.001; 1-way ANOVA with Bonferroni's multiple comparison test in A and C and with Dunnett's multiple comparison test against the media only control in B and D.
# To investigate the fracture-derived stimulus for osteogenic differentiation of MDSC, fracture supernatants were prepared using human tibial fracture fragments obtained within 24 hours of injury (ethics approval number—COREC No: 07/Q0411/30). […] Bone fragments were obtained from either fractured tibial fragments or non-traumatically cut bone slices. These were then incubated in serum free DMEM+Glutamax media for 24 hours. The supernatant was then filter sterilised to remove any contaminants and cellular debris. MDSC were then cultured in the presence of either control media, osteogenic media, fracture supernatant or non-fracture supernatant for 7 days before lysis and quantification of ALP levels.
# 1×10^4 human MDSC were added to wells of a 96 well plate in triplicate. At 24 hrs the media was pipetted off and replaced by 200 μl test media. The media was changed every 3 days. At 7 days the media was removed and the cells lysed in 20 μl NP-40 lysis buffer. An ALP quantification assay (WAKO pure chemical Ltd.) was used. Calibration solution from the assay was serially diluted to make concentrations of 0.25, 0.125 and 0.0625 mmol/L. To empty wells, 20 μl of each calibration solution was added. To another, dH2O was added. 100 μl reagent (1 taBIet per 5 ml buffer solution) was added to each well, and incubated at 37° C. for 20 minutes. 80 μl stop solution was then added to each well and the plate was read using an ELISA spectrometer at 405 nm wavelength. The concentration of ALP in the test wells was extrapolated from the standard curve.
# [3] = tested on: muscle-derived stromal cells (MDSC); assay: Bone nodule formation by MDSC (alizarin red staining); assay type: cell-based, human
# Text: FIG. 26 TNF-α and IL-6 promote osteogenic differentiation of MDSC A-D: ALP quantification assays after culture of 1×10^4 MDSC for 7 days in a 96-well plate in triplicate with: A: fracture supernatant, ±antibody neutralization of BMPs 2/4 7 and to TGF-β. The immunoglobulin isotype controls used included IgG^1 for AbBMP-2/4 and AbTGF-β, and IgG^2B for Ab-BMP-7. B: human serum containing culture medium with the addition of recombinant human BMPs and TGF-β. C: fracture supernatant±antibody neutralization of TNF-α, IL-6 and IL-1β. The IgG^1 immunoglobulin was used as the antibody isotype control. D: human serum-containing culture medium with the addition of recombinant human TNF-α, IL-6 and IL-1β. E: Alizarin red staining for bone nodule formation after culture of 1×10^4 MDSC in human serum-containing media. Recombinant human cytokine at the optimal dose indicated by D, was added for the first 3 days ONLY, and the cells were subsequently cultured in media for 32 days. A representative image from a single well is shown. All experiments were performed 3 times, in triplicate (n=3) using MDSC from 3 donors. Values for A-D represent a mean from 3 experiments ±SEM, using supernatant from 3 donors in A and C. *: P<0.05; **: P<0.01; ***: P<0.001; 1-way ANOVA with Bonferroni's multiple comparison test in A and C and with Dunnett's multiple comparison test against the media only control in B and D.
# 1×10^4 MDSC were added to wells of a 24-well plate in triplicate. The cells were cultured for 35-40 days in osteogenic media (DMEM with 10% fetal calf serum and 1% penicillin/streptomycin also containing 100 nM dexamethasone (SIGMA), 1 mM β-glycerol phosphate and […] ascorbic acid), supernatant or media containing recombinant cytokines (with one media change per week) the cells were fixed with 2 ml 10% neutral buffered formalin at room temperature for 15 min. The plate was then washed twice with excess PBS. 1 ml filtered 40 mM alizarin red solution (pH 4.1) was added to each well and agitated at room temperature for 30 minutes. The excess dye was then aspirated and the plate washed four times in distilled water with gentle agitation. Finally, the plates were turned upside-down on paper to dry. Bone nodules appeared red under light microscopy. Images were taken at 20 times magnification and performed as above.
# [4] = cited from earlier work
# fractured ribs = settings: daily intraperitoneal 400 μg/kg body weight per day after fracture, rats; cited from earlier work
substance,measurement,setting,value
TNFα,proliferation of MDSC,"[1]; Example 1 discussion, TNFα 1 ng/ml",led to proliferation of MDSC
same,MDSC proliferation,"[1]; Example 3, 1, 3 and 5 days in human serum-containing media ± recombinant human cytokine (FIG. 28)",do not promote MDSC proliferation
same,ALP expression (osteogenic differentiation) in cultured MDSC,"[2]; Example 1, exogenous recombinant human factor added to MDSC culture (FIG. 8, 10, 12)",dose-dependent stimulation of ALP expression
same,ALP expression by MDSC,"[2]; Example 3, 7 days in human serum-containing media with recombinant human factor (FIG. 26B, 26D)",stimulated ALP expression
same,concentration at which ALP expression by MDSC is stimulated,"[2]; Example 3, 7 days, human serum-containing media (FIG. 26D)",up to 1 ng/ml
same,ALP expression by MDSC relative to control,"[2]; Example 3, TNF-α at 100 ng/ml, 7 days (FIG. 26D)",non-significantly less than the control
same,bone nodule formation by MDSC,"[3]; Example 1, cytokine at 1 ng/ml, 5 weeks (FIG. 13)",promoted; also recorded: pronounced bone nodule formation
same,bone nodule formation by MDSC,"[3]; Example 3, recombinant cytokine at optimal dose for first 3 days, human serum-containing media (FIG. 26E)",stimulated vigorous nodule formation
same,plasma half life,[4]; in the presence of soluble TNFα receptors,up to 6 hours
same,plasma half life,[4]; in vivo,less than 1 hour
same,fracture healing,fractured ribs,significantly inhibited
